In PMC12142871 (BMC Psychiatry, 2025):

Experiments:
[1] = cited from earlier work
[2] = dose-response meta-analysis; cited from earlier work
[3] = Therapeutic drug monitoring: steady-state trough serum sertraline concentration
[4] = Female, Adults, median (1st quartile, 3rd quartile), listed as sertraline

CN[C@H]1CC[C@@H](c2ccc(Cl)c(Cl)c2)c2ccccc21 [Sertraline]
reference range of serum concentration ([1]; children and adolescents, TDM-VIGIL study): 66 to 76 ng/mL
coefficient of variation of concentration ([1]; interindividual pharmacokinetic variability): 59%
effective daily range [2]: 50 to 150 mg
C/D (dose-adjusted serum concentration) ([3]; Adults, median (1st quartile, 3rd quartile)): 0.50 (0.33, 0.71) (ng/ml)/(mg/d)
C/D (dose-adjusted serum concentration) ([3]; Adults, median (1st quartile, 3rd quartile), listed as sertraline): 0.50 (ng/ml)/(mg/d)
C/D (dose-adjusted serum concentration) ([3]; Children and Adolescents, median (1st quartile, 3rd quartile)): 0.44 (0.31, 0.67) (ng/ml)/(mg/d)
C/D (dose-adjusted serum concentration) ([3]; Children and Adolescents, median (1st quartile, 3rd quartile), listed as sertraline): 0.44 (ng/ml)/(mg/d)
Serum Concentration ([3]; Female, Adults, median (1st quartile, 3rd quartile)): 62.3 (33.5, 102.0) ng/mL
C/D [3, 4]: 0.51 (ng/ml)/(mg/d)
Serum Concentration [3, 4]: 62.3 ng/mL
Serum Concentration ([3]; Female, Children and Adolescents, median (1st quartile, 3rd quartile)): 53.2 (32.4, 86.2) ng/mL
Serum Concentration ([3]; Female, Total, median (1st quartile, 3rd quartile)): 57.0 (32.9, 95.5) ng/mL
Serum Concentration ([3]; Male, Adults, median (1st quartile, 3rd quartile)): 55.8 (35.0, 86.0) ng/mL
Serum Concentration ([3]; Male, Adults, median (1st quartile, 3rd quartile), listed as sertraline): 55.8 ng/mL
Serum Concentration ([3]; Male, Children and Adolescents, median (1st quartile, 3rd quartile)): 41.8 (23.9, 65.5) ng/mL
Serum Concentration ([3]; Male, Total, median (1st quartile, 3rd quartile)): 52.4 (31.6, 81.3) ng/mL
C/D (dose-adjusted serum concentration) ([3]; Total, median (1st quartile, 3rd quartile)): 0.47 (0.32, 0.69) (ng/ml)/(mg/d)
Coefficient of variation (CV) of C/D value ([3]; adults, interindividual): 61.1%
Coefficient of variation (CV) of sertraline concentration ([3]; adults, interindividual): 68.0%
Coefficient of variation (CV) of C/D value ([3]; younger patients (children and adolescents), interindividual): 80.6%
